Reference: publication PMC8742467, “Therapeutical interference with the epigenetic landscape of germ cell tumors: a comparative drug study and new mechanistical insights” (Clinical Epigenetics, 2022)

Assays:
GCT cell lines = assay: XTT cell viability assay, GCT cell lines (pre-screen / summary); assay type: cell-based, Human; conditions: first pre-screen, SE and EC proxies TCam-2 and 2102EP, XTT
Outline: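 GCT cells seeded at 5 × 10^3/well, UC lines at 3 × 10^3/well; drug dilution series or solvent added next day. Viability read by XTT, four technical replicates per condition; EC50 calculated from concentration–response data.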

2102EP-R [1] = assay: Flow cytometry apoptosis (Annexin V/PI), 2102EP-R; assay type: cell-based, Human; conditions: EC50, 16 h, compared to the parental cell line
fibroblast control cells = assay: Flow cytometry apoptosis (Annexin V/PI), fibroblasts; assay type: cell-based, Human; conditions: EC50, 16 h
Protocol: (§1) For Annexin V/PI staining, cells were washed with Annexin V Binding Buffer before being resuspended in 70 µl Annexin V Binding Buffer and 2.5 μl Annexin V FITC-conjugate (both Miltenyi Biotec, Bergisch Gladbach, Germany) and 15 µg PI (Sigma-Aldrich, Taufkirchen, Germany) and incubated in the dark at room temperature for 15 min. 500 µl of Annexin V Binding Buffer was added before measurement. For the cell cycle analysis, cells were washed with PBS (phosphate buffered saline), fixed by ice cold 70% ethanol and stained with 2 µg/ml PI and 200 µg/ml RNaseA (Quiagen, Hilden, Germany 100 mg/ml) in PBS shortly before every measurement. At least 5 × 10^4 cells were counted and analyzed using the MACSQuant software v 2.13.0.

2102EP-R [2] = assay: Flow cytometry cell cycle (PI), 2102EP-R; assay type: cell-based, Human; conditions: EC50, 16 h
Protocol: as §1

GCT cells = assay: Flow cytometry cell cycle (PI), GCT cells; assay type: cell-based, Human; conditions: EC50, 16 h
Protocol: as §1

[3] = tested on: histone modifications in 2102EP cells; assay: Mass spectrometry analysis of histone modifications (Mod Spec); assay type: cell-based, Human
Protocol: 2102EP cells were treated with the EC50 concentrations for Quisinostat, JIB-04, Chaetocin, MZ-1, LP99, PRT4165, GSK343 and DMSO as solvent control. The cells were harvested via trypsinization after 16 h. The mass spectrometric analysis of histone modifications was outsourced to the Mod Spec service by Active Motif (Carlsbad, CA, USA). Histone extraction and mass spectrometric analysis was performed as described previously. Raw data were transformed into z-scores as the input. The heatmap was generated in R using ‘pheatmap’ with default settings and provided by Active Motif.

[4] = tested on: DNA methylation (5mC, 5hmC) in 2102EP cells; assay: DNA slot blot (5mC, 5hmC); assay type: cell-based, Human; conditions: 24 h
[5] = tested on: transcriptome of 2102EP cells; assay: RNA sequencing; assay type: cell-based, Human; conditions: 16 h
Protocol: Transcriptome analysis has been performed as previously described at the core facility ‘Genomics & Transcriptomics’ (Prof. Dr. Karl Köhrer, Biomedical Research Center, Heinrich Heine University, Düsseldorf, Germany) and has been publicly shared via GEO (https://www.ncbi.nlm.nih.gov/geo/, GSE189472). RNA samples were quantified and measured as previously described. Statistical analyses were performed using the ‘Differential Expression in two groups’ tool (version 1.02) (Qiagen) and the resulting p values were corrected for multiple testing by false discovery rate (FDR). Accompanying PCA and heatmap were generated using Qlucore Omics Explorer 3.7 (Qlucore AB, Lund, Sweden). Values of solvent controls wereaveraged from the studies GSE189472, GSE190792 and GSE190022 [95].

[6] = tested on: phosphorylated kinase targets in 2102EP cells; assay: Proteome Profiler Human Phospho-Kinase Array; assay type: cell-based; conditions: 16 h
Protocol: For the detection of phosphorylated kinase targets, the Proteome Profiler Human Phospho-Kinase Array Kit (R&D Systems, Abingdon, UK) was used according to the manufacturer’s instructions. The ChemiDoc Imaging System (Bio-Rad Laboratories, Feldkirchen, Germany) was used for detection. 2102EP cells were harvested after 16 h of treatment with the epi-drugs. Pixel density was analyzed using Fiji ImageJ 1.53c.

[7] = 2102EP cells, Mod Spec raw data

Cc1ncsc1-c1ccc(CNC(=O)[C@@H]2C[C@@H](O)CN2C(=O)[C@@H](NC(=O)COCCOCCOCCNC(=O)C[C@@H]2N=C(c3ccc(Cl)cc3)c3c(sc(C)c3C)-n3c(C)nnc32)C(C)(C)C)cc1 [MZ-1]
EC50 / effective concentration in words (GCT cell lines): nanomolar range | apoptosis induction in 2102EP-R (2102EP-R [1]): did not induce apoptosis | apoptosis induction in fibroblast control cells (fibroblast control cells): only a weak apoptosis induction | cell cycle arrest in 2102EP-R (2102EP-R [2]): induced a cell cycle arrest | cell cycle phase accumulation in GCT cells (GCT cells): accumulated in the G0/G1 phase | H1.4: K25AC, % of peptide pool [3, 7]: 0.008625% | H1.4: K25ME1, % of peptide pool [3, 7]: 2.068% | H1.4: K25ME2, % of peptide pool [3, 7]: 0.007907% | H1.4: K25ME3, % of peptide pool [3, 7]: 0.004447% | H1.4: K25UN, % of peptide pool [3, 7]: 97.9109% | H2A1: K13AC, % of peptide pool [3, 7]: 0.01664% | H2A1: K13UN, % of peptide pool [3, 7]: 99.9834% | H2A1: K15AC, % of peptide pool [3, 7]: 0.002429% | H2A1: K15UB, % of peptide pool [3, 7]: 0% | H2A1: K15UN, % of peptide pool [3, 7]: 99.9976% | H2A3: K13AC, % of peptide pool [3, 7]: 0.02309% | H2A3: K13UN, % of peptide pool [3, 7]: 99.9769% | H2A3: K15AC, % of peptide pool [3, 7]: 0.2972% | H2A3: K15UB, % of peptide pool [3, 7]: 0% | H2A3: K15UN, % of peptide pool [3, 7]: 99.7028% | H2A: K5AC, % of peptide pool [3, 7]: 16.7692% | H2A: K5UN, % of peptide pool [3, 7]: 83.2308% | H2A: K9AC, % of peptide pool [3, 7]: 1.92% | H2A: K9UN, % of peptide pool [3, 7]: 98.08% | H2A: K36AC, % of peptide pool [3, 7]: 0.02873% | H2A: K36UN, % of peptide pool [3, 7]: 99.9713% | H3: K9AC, % of peptide pool [3, 7]: 0.8879% | H3: K9ME1, % of peptide pool [3, 7]: 31.6276% | H3: K9ME2, % of peptide pool [3, 7]: 28.3662% | H3: K9ME3, % of peptide pool [3, 7]: 2.878% | H3: K9UN, % of peptide pool [3, 7]: 36.24% | H3: K14AC, % of peptide pool [3, 7]: 33.1456% | H3: K14UN, % of peptide pool [3, 7]: 66.8544% | H3: K18AC, % of peptide pool [3, 7]: 15.0157% | H3: K18ME1, % of peptide pool [3, 7]: 0.179% | H3: K18UN, % of peptide pool [3, 7]: 84.8052% | H3: K23AC, % of peptide pool [3, 7]: 21.7451% | H3: K23ME1, % of peptide pool [3, 7]: 0.008431% | H3: K23UN, % of peptide pool [3, 7]: 78.2464% | H3: K56AC, % of peptide pool [3, 7]: 0.06901% | H3: K56ME1, % of peptide pool [3, 7]: 0.03638% | H3: K56UN, % of peptide pool [3, 7]: 99.8946% | H3: K64AC, % of peptide pool [3, 7]: 0.06102% | H3: K64UN, % of peptide pool [3, 7]: 99.939% | H3: K79AC, % of peptide pool [3, 7]: 0.05432% | H3: K79ME1, % of peptide pool [3, 7]: 14.344% | H3: K79ME2, % of peptide pool [3, 7]: 7.357% | H3: K79ME3, % of peptide pool [3, 7]: 10.1837% | H3: K79UN, % of peptide pool [3, 7]: 68.0612% | H3: K122AC, % of peptide pool [3, 7]: 0.03608% | H3: K122UN, % of peptide pool [3, 7]: 99.9639% | H3: Q19ME1, % of peptide pool [3, 7]: 0.004515% | H3: Q19UN, % of peptide pool [3, 7]: 99.9955% | H3: Q55ME1, % of peptide pool [3, 7]: 0.1937% | H3: Q55UN, % of peptide pool [3, 7]: 99.8063% | H3: R42ME2, % of peptide pool [3, 7]: 1.387% | H3: R42UN, % of peptide pool [3, 7]: 98.6131% | H3: R49ME2, % of peptide pool [3, 7]: 3.092% | H3: R49UN, % of peptide pool [3, 7]: 96.9084% | H3R2UN: K4AC, % of peptide pool [3, 7]: 0.04633% | H3R2UN: K4ME1, % of peptide pool [3, 7]: 16.637% | H3R2UN: K4ME2, % of peptide pool [3, 7]: 0.2165% | H3R2UN: K4ME3, % of peptide pool [3, 7]: 0.04192% | H3R2UN: K4UN, % of peptide pool [3, 7]: 83.0582% | H3R2UN: Q5ME1, % of peptide pool [3, 7]: 0.08148% | H3R2UN: Q5UN, % of peptide pool [3, 7]: 99.9185% | H3.1: K27AC, % of peptide pool [3, 7]: 2.915% | H3.1: K27ME1, % of peptide pool [3, 7]: 46.4162% | H3.1: K27ME2, % of peptide pool [3, 7]: 19.546% | H3.1: K27ME3, % of peptide pool [3, 7]: 2.363% | H3.1: K27UN, % of peptide pool [3, 7]: 28.7602% | H3.1: K36AC, % of peptide pool [3, 7]: 0.09043% | H3.1: K36ME1, % of peptide pool [3, 7]: 14.1558% | H3.1: K36ME2, % of peptide pool [3, 7]: 48.8646% | H3.1: K36ME3, % of peptide pool [3, 7]: 20.4408% | H3.1: K36UN, % of peptide pool [3, 7]: 16.4484% | H3.3: K27AC, % of peptide pool [3, 7]: 6.233% | H3.3: K27M, % of peptide pool [3, 7]: 0% | H3.3: K27ME1, % of peptide pool [3, 7]: 47.8396% | H3.3: K27ME2, % of peptide pool [3, 7]: 15.5733% | H3.3: K27ME3, % of peptide pool [3, 7]: 3.5424% | H3.3: K27UN, % of peptide pool [3, 7]: 26.8119% | H3.3: K36AC, % of peptide pool [3, 7]: 1.864% | H3.3: K36ME1, % of peptide pool [3, 7]: 12.2128% | H3.3: K36ME2, % of peptide pool [3, 7]: 53.2755% | H3.3: K36ME3, % of peptide pool [3, 7]: 19.9611% | H3.3: K36UN, % of peptide pool [3, 7]: 12.6864% | H4: K5AC, % of peptide pool [3, 7]: 7.836% | H4: K5UN, % of peptide pool [3, 7]: 92.164% | H4: K8AC, % of peptide pool [3, 7]: 12.4074% | H4: K8UN, % of peptide pool [3, 7]: 87.5926% | H4: K12AC, % of peptide pool ([3]; 2102EP cells, Mod Spec raw data, histone H4 K12 acetylated): 7.206 % of peptide pool | H4: K12UN, % of peptide pool ([3]; 2102EP cells, Mod Spec raw data, histone H4 K12 unmodified): 92.7945 % of peptide pool | H4: K16AC, % of peptide pool ([3]; 2102EP cells, Mod Spec raw data, histone H4 K16 acetylated): 49.1827 % of peptide pool | H4: K16UN, % of peptide pool ([3]; 2102EP cells, Mod Spec raw data, histone H4 K16 unmodified): 50.8173 % of peptide pool | H4: K20AC, % of peptide pool ([3]; 2102EP cells, Mod Spec raw data, histone H4 K20 acetylated): 21.1654 % of peptide pool | H4: K20ME2, % of peptide pool ([3]; 2102EP cells, Mod Spec raw data, histone H4 K20 dimethylated): 54.2158 % of peptide pool | H4: K20ME1, % of peptide pool ([3]; 2102EP cells, Mod Spec raw data, histone H4 K20 monomethylated): 4.396 % of peptide pool | H4: K20ME3, % of peptide pool ([3]; 2102EP cells, Mod Spec raw data, histone H4 K20 trimethylated): 2.467 % of peptide pool | H4: K20UN, % of peptide pool ([3]; 2102EP cells, Mod Spec raw data, histone H4 K20 unmodified): 17.7556 % of peptide pool | change of histone modifications of the expected mode of action (Mod Spec) ([3]; 2102EP, EC50, 16 h, vs solvent control): increase in H3K64ac and H2A3K15ac | 5hmC levels increase compared to solvent control [4]: 19% | 5mC levels compared to solvent control ([4]; solvent control set to 100%): 70% | EIF3CL Log2 fold change vs. DMSO ([5]; sorted data log2>±1.5, FDR p<0.05): -2.31 | A1BG Log2 fold change vs. DMSO ([5]; unsorted data): -0.0752 | A1CF Log2 fold change vs. DMSO ([5]; unsorted data): -1.99 | A2M Log2 fold change vs. DMSO ([5]; unsorted data): 0.0948 | CREB, STAT3 and STAT5 phosphorylation and total levels of β-Catenin and HSP60 [6]: decreased | ERK1/2 phosphorylation [6]: decreased
